# Assay results reported in patent publication US9359317B2, “Small molecule inhibitors of HIV proteases” (Purdue Research Foundation, priority 2008, dated 2016).
# Molecular target: HIV Protease (Human immunodeficiency virus type 1 group M subtype B, UniProt P04585)
# Assay: Inhibition of HIV Protease
# Type: biochemical
# Conditions: Table 1, Inhibition of HIV Protease by compounds of formula drawing 46
row,Structure (SMILES),Ki [nM]
1,C=CCC1OC(c2ccccc2)CC1C(NS(=O)(=O)c1ccc(F)cc1)C(=O)O (stereo not shown) [compound 18],> 1000
2,Cc1ccc(S(=O)(=O)NC(C(=O)O)C2CC(c3ccccc3)OC2CC(O)c2ccccc2)cc1 (stereo not shown) [compound 21],4
3,Cc1ccc(S(=O)(=O)NC(C(=O)O)C2CC(c3ccccc3)OC2CC(O)CO)cc1 (stereo not shown) [compound 22],27
4,C=CCC1OC(c2ccccc2)CC1C(NS(=O)(=O)c1ccc(C)cc1)C(=O)O (stereo not shown) [compound 25],> 1000
5,Cc1ccc(S(=O)(=O)NC(C(=O)O)C2CC(c3ccc4ccccc4c3)OC2CC(O)c2ccccc2)cc1 (stereo not shown) [compound 26],150
6,CC=CC1OC(c2ccccc2)CC1C(NS(=O)(=O)c1ccc(C)cc1)C(=O)O (stereo not shown) [compound 33],> 1000

# Same assay, conditions: Table 2, Inhibition of HIV Protease
row,Structure (SMILES),Ki [nM]
1,COc1ccc(S(=O)(=O)NC(C(=O)O)C2CC3Cc4cc(OC)ccc4C2O3)cc1 (stereo not shown) [compound 2],> 1000
